For orientation: hepatocyte CLint means the capacity of the preparation to metabolise the compound, expressed as a volume cleared per time. As a reminder, the microsomal CLint is the capacity of the preparation to metabolise the compound, expressed as a volume cleared per time.

We go through three compounds from patent US20220125765A1, “PHARMACEUTICAL COMBINATIONS COMPRISING MEBENDAZOLE AND A STRONG OR MODERATE CYP1A2 INHIBITOR” (ZEPHAPHARM LTD, priority 2019, published 2022).

Series [1] in a line: Stability in human cryopreserved hepatocytes without and with cimetidine or furafylline (Example 5). The series is classed as in vitro ADME. The conditions noted are these: human, substrate 1 μM, read-out: t1/2. The protocol: The final incubation volume was 500 μL. Two control compounds were included with each species, alongside appropriate vehicle control.
The samples were analysed for mebendazole or ethoxycoumarin using LC-MS/MS.
The final incubation volume was 500 μL.
A positive control compound, ethoxycoumarin, for CYP1A2 was included. […] The samples were analysed for mebendazole or ethoxycoumarin using LC-MS/MS.

Series [2] is described as follows: Stability in human cryopreserved hepatocytes without and with cimetidine or thiabendazole (Example 6). The conditions noted are these: human, substrate 1 μM; for half-life at 1 μM: t½.
Method: Mebendazole (1 μM) was incubated with cryopreserved human hepatocytes for 60 min in the absence and presence of cimetidine at 30, 100 and 300 μM) and thiabendazole at 10, 30 and 100 μM and samples taken at the required time points. The amount of test compound remaining at each time point was analysed by LC-MS/MS. Appropriate control compounds were also incubated along with ethoxycoumarin, which was incubated in the absence and presence of cimetidine and thiabendazole.
The final incubation volume was 500 μL. Two control compounds were included, alongside appropriate vehicle control. A positive control compound, ethoxycoumarin, for CYP1A2 was included. The positive control compound was incubated without inhibitor and in the presence of each inhibitor. The reactions were stopped by transferring 50 μL of incubate to 100 μL acetonitrile containing internal standard at the appropriate time points (0, 5, 10, 20, 40 and 60 min). The termination plates were centrifuged at 2500 rpm at 4° C. for 30 min to precipitate the protein.
The nature of series [3]: Stability in human liver microsomes without and with cimetidine or furafylline (Example 4). It counts as in vitro ADME. The note with it: substrate 1 μM; for half-life at 1 μM / microsomal CLint at 1 μM: human, liver microsomes. How it is done: A minus cofactor control incubation was included for each compound tested where 0.1 M phosphate buffer pH 7.4 was added instead of NADPH (minus NADPH). […] The samples were analysed for mebendazole or phenacetin using LC-MS/MS.
A minus cofactor control incubation was included for each compound tested where 0.1 M phosphate buffer pH 7.4 was added instead of cofactor (minus NADPH). […] The samples were analysed for mebendazole or phenacetin using LC-MS/MS.
(Liver microsomes are a subcellular fraction often used to study metabolism.)

Setting [4] is: cryopreserved hepatocytes (suspension), no inhibitor.
Setting [5] is: cryopreserved hepatocytes, with cimetidine 30 μM, cimetidine 30 μM.
The mark [6] stands for this setting: cryopreserved hepatocytes, with cimetidine 100 μM, cimetidine 100 μM.
The mark [7] stands for this setting: cryopreserved hepatocytes, with cimetidine 300 μM, cimetidine 300 μM.
Where [8] appears, read: pH 7.4, with cimetidine 30 μM, plus 30 μM cimetidine.
Setting [9] is: pH 7.4, with cimetidine 100 μM, plus 100 μM cimetidine.
[10] abbreviates: pH 7.4, with cimetidine 300 μM, plus 300 μM cimetidine.

With `O=c1ccc2ccc(O)cc2o1` [Umbelliferone], the half-life at 1 μM in series [1] (setting [4]) came out at 7.95 min. Besides, in series [2] (setting [4]), the hepatocyte CLint at 1 µM came out at 229 µL/min/1e6 cells and the half-life at 1 μM worked out at 6.05 min.
In the case of `CCOc1ccc2ccc(=O)oc2c1`, the hepatocyte CLint at 1 µM in series [2] (setting [4]) was determined as 105 µL/min/1e6 cells; in series [2] (cryopreserved hepatocytes (suspension), with cimetidine 30 µM, cimetidine 30 μM), 99.9 µL/min/1e6 cells; in series [2] (cryopreserved hepatocytes (suspension), with cimetidine 100 µM, cimetidine 100 μM) it was 88.8 µL/min/1e6 cells; in series [2] (cryopreserved hepatocytes (suspension), with cimetidine 300 µM, cimetidine 300 μM) it was 59.8 µL/min/1e6 cells; in series [2] (cryopreserved hepatocytes (suspension), with thiabendazole 10 µM, thiabendazole 10 μM), 8.65 µL/min/1e6 cells; in series [2] (cryopreserved hepatocytes (suspension), with thiabendazole 30 µM, thiabendazole 30 μM) it was 5.35 µL/min/1e6 cells. Also, the hepatocyte CLint at 1 µM in series [2] (cryopreserved hepatocytes (suspension), with thiabendazole 100 µM, thiabendazole 100 μM) stood at 4.05 µL/min/1e6 cells. In addition, the half-life at 1 μM in series [2] (setting [4]) came to 13.2 min; in series [2] (setting [5]), 13.9 min; in series [2] (setting [6]), 15.6 min; in series [2] (setting [7]) it was 23.2 min; in series [2] (cryopreserved hepatocytes, with thiabendazole 10 μM, thiabendazole 10 μM), 160 min; in series [2] (cryopreserved hepatocytes, with thiabendazole 30 μM, thiabendazole 30 μM) it was 259 min. For the same compound, the half-life at 1 μM in series [2] (cryopreserved hepatocytes, with thiabendazole 100 μM, thiabendazole 100 μM) is 343 min.
As for `CCOc1ccc(NC(C)=O)cc1` [Phenacetin], the half-life at 1 μM in series [3] (setting [8]) was found to be 65.3 min; in series [3] (setting [9]) it was 78.9 min; in series [3] (setting [10]), 99.6 min; in series [3] (pH 7.4, no inhibitor), 61.9 min; in series [1] (setting [4]) it was 12.9 min; in series [1] (setting [5]), 13.4 min. In addition, the half-life at 1 μM was 15.7 min in series [1] (setting [6]); 18.8 min in series [1] (setting [7]); 59.6 min in series [1] (cryopreserved hepatocytes, with furafylline 3 μM, furafylline 3 μM); 89.3 min in series [1] (cryopreserved hepatocytes, with furafylline 10 μM, furafylline 10 μM); 110 min in series [1] (cryopreserved hepatocytes, with furafylline 30 μM, furafylline 30 μM). Moreover, the microsomal CLint at 1 μM in series [3] (setting [8]) was 21.2 µL/min/mg; in series [3] (setting [9]), 17.6 µL/min/mg; in series [3] (setting [10]) it was 13.9 µL/min/mg; in series [3] (pH 7.4, with furafylline 3 μM, plus 3 μM furafylline), 3 to 49 µL/min/mg; in series [3] (pH 7.4, with furafylline 10 μM, plus 10 μM furafylline) it was 2 to 58 µL/min/mg; in series [3] (pH 7.4, with furafylline 30 μM, plus 30 μM furafylline), 2.71 µL/min/mg. This compound returned a microsomal CLint at 1 μM in series [3] (pH 7.4, no inhibitor) of 22.4 µL/min/mg. In addition, the figures for the CLint in series [3] (plus 3 μM furafylline) and in series [3] (plus 10 μM furafylline) were 3.49 μL/min/mg protein and 2.58 μL/min/mg protein, respectively.
